Measured values from patent US7960556B2, “Thiadiazole derivatives for the treatment of neuro-degenerative diseases” (NV reMYND, priority 2006, dated 2011).

Tested on: α-synuclein cytotoxicity in M17-SYNwt cells
Assay: α-synuclein cytotoxicity assay: LDH leakage from paraquat-treated M17-SYNwt neuroblastoma cells;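 also: paraquat at 32 mM co-added with compound, 40 h exposure, LDH activity released into the culture medium measured, references are DMSO-only cells and paraquat plus DMSO cells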
Conditions: Homo sapiens, Neuroblastoma cell; for Emax: read-out: % Inhib.
Text: An α-synuclein expression plasmid was constructed by sub-cloning the NcoI/XhoI fragment from 212T-SYN(WT) (Griffioen et al., Biochem Biophys Acta (2006) 1762(3):312-318) containing the cDNA of human wild type α-synuclein correspondingly into a standard mammalian expression vector pcDNA3.1 (Invitrogen) resulting into the plasmid pcDNA3.1-SYNwt. Plasmids pcDNA3.1 and pcDNA3.1-SYNwt were transfected to human neuroblastoma cells (ATCC No. CRL-2267) and independent clonal lines with the plasmids stably integrated into the genome were selected. […] Over-expression of α-synuclein in M17-SYNwt cell lines was confirmed by Western analysis.
Due to the high levels of α-synuclein M17-SYNwt cells are exquisitely sensitivity to paraquat, a well-known risk factor of synuclein-dependent neuronal degeneration. In degenerated or dead cells lactate dehydrogenase (LDH) is leaked out of the cells into the extracellular environment due to a loss of plasma-membrane integrity. This principle was used to determine cytotoxicity by quantifying the level of leaked LDH into the growth medium.
The detailed method for determining α-synuclein cytotoxicity was as follows: From appropriate precultures of M17 and M17-SYN cells were seeded at 50,000 cells/cm^2 in Optimem Reduced Serum without phenol red (available from InVitrogen, Cat. 31985-047) supplemented with 5% fetal calf serum, 1 mM sodium pyruvate, 1× non-essential amino acids, 500 μg/ml G418 0,5× antibiotic/antimycotic. After 3 hours of incubation at 37° C./5% CO2 paraquat was added to the cells (final concentration of 32 mM), together with the test compound and the cells were further incubated for 40 hours. Subsequently, LDH activity was determined using Promega Cytotox 96 Non-Radioactive cytotoxicity assay, (Cat. G1780) according the instructions of the supplier.
In these experiments, the control group consisted of M17-SYNwt cells treated with DMSO, the untreated paraquat group consisted of M17-SYNwt cells treated with paraquat and DMSO, and the treated paraquat group consisted of M17-SYNwt cells treated with paraquat and the test compound dissolved in DMSO.

SMILES | Emax [%] | EC50 [nM]
Cc1ccc(Cc2nsc(N3CCN(S(=O)(=O)c4ccc([N+](=O)[O-])cc4)C(C)C3)n2)cc1 (stereo not shown) [compound 71, 1-[4-nitrophenylsulfonyl]-4-[3-(4-methylbenzyl)-1,2,4-thiadiazol-5-yl]-2-methylpiperazine] | 33 | –
CC1CN(c2nc(Cc3ccc(F)cc3)ns2)CCN1S(=O)(=O)c1ccc([N+](=O)[O-])cc1 (stereo not shown) [compound 73, 1-[4-nitrophenylsulfonyl]-4-[3-(4-fluorobenzyl)-1,2,4-thiadiazol-5-yl]-2-methylpiperazine] | 33 | –
COc1ccc(S(=O)(=O)N2CCN(c3nc(Cc4ccc(F)cc4)ns3)CC2)cc1 [compound 74, 1-[4-methoxyphenylsulfonyl]-4-[3-(4-fluorobenzyl)-1,2,4-thiadiazol-5-yl]piperazine] | 44 | 0.105
O=S(=O)(Cc1ccccc1)N1CCN(c2nc(Cc3ccc(Cl)cc3)ns2)CC1 [compound 76, 1-(benzylsulfonyl)-4-[3-(4-chlorobenzyl)-1,2,4-thiadiazol-5-yl]piperazine] | 40 | –
Cc1ccc(Cc2nsc(N3CCN(S(=O)(=O)Cc4ccccc4)CC3)n2)cc1 [compound 77, 1-(benzylsulfonyl)-4-[3-(4-methylbenzyl)-1,2,4-thiadiazol-5-yl]piperazine] | 81 | –
CCCCS(=O)(=O)N1CCN(c2nc(Cc3ccc(Cl)cc3)ns2)CC1 [compound 81, 1-(butylsulfonyl)-4-[3-(4-chlorobenzyl)-1,2,4-thiadiazol-5-yl]piperazine] | 80 | 350
CCCCCCCCS(=O)(=O)N1CCN(c2nc(Cc3ccc(C)cc3)ns2)CC1 [compound 82, 1-(octylsulfonyl)-4-[3-(4-methylbenzyl)-1,2,4-thiadiazol-5-yl]piperazine] | 50 | 1580
CCCCS(=O)(=O)N1CCN(c2nc(Cc3ccc(C)cc3)ns2)CC1 [compound 83, 1-(butylsulfonyl)-4-[3-(4-methylbenzyl)-1,2,4-thiadiazol-5-yl]piperazine] | 36 | 2640
CCS(=O)(=O)N1CCN(c2nc(Cc3ccc(Cl)cc3)ns2)CC1 [compound 84, 1-(ethylsulfonyl)-4-[3-(4-chlorobenzyl)-1,2,4-thiadiazol-5-yl]piperazine] | 53 | 3480
Cc1ccc(Cc2nsc(N3CCN(S(=O)(=O)C(C)C)CC3)n2)cc1 [compound 85, 1-(isopropylsulfonyl)-4-[3-(4-methylbenzyl)-1,2,4-thiadiazol-5-yl]piperazine] | 69 | 3650
CC1CN(c2nc(Cc3ccc(Cl)cc3)ns2)CCN1C(=O)/C=C/c1ccccc1 (stereo not shown) [compound 86, 1-[(2E)-3-phenylprop-2-enoyl]-4-[3-(4-chlorobenzyl)-1,2,4-thiadiazol-5-yl]2-methylpiperazine] | 81 | 1130
CC1CN(c2nc(Cc3ccc(F)cc3)ns2)CCN1C(=O)/C=C/c1ccccc1 (stereo not shown) [compound 87, 1-[(2E)-3-phenylprop-2-enoyl]-4-[3-(4-fluorobenzyl)-1,2,4-thiadiazol-5-yl]-2-methylpiperazine] | 94 | 2490
O=C(/C=C/c1ccccc1)N1CCN(c2nc(Cc3ccc(Cl)cc3)ns2)CC1 [compound 88, [(2E)-3-phenylprop-2-enoyl]-4-[3-(4-chlorobenzyl)-1,2,4-thiadiazol-5-yl]piperazine] | 72 | –
CC1CN(c2nc(Cc3ccc(F)cc3)ns2)CCN1C(=O)CCc1ccccc1 (stereo not shown) [compound 89, 1-(3-phenylpropanoyl)-4-[3-(4-fluorobenzyl)-1,2,4-thiadiazol-5-yl]-2-methylpiperazine] | 86 | 600
O=C(CCc1ccccc1)N1CCN(c2nc(Cc3ccc(F)cc3)ns2)CC1 [compound 90, 1-(3-phenylpropanoyl)-4-[3-(4-fluorobenzyl)-1,2,4-thiadiazol-5-yl]piperazine] | 73 | 1410
Cc1ccc(Cc2nsc(N3CCN(C/C=C/c4ccccc4)CC3)n2)cc1 [compound 91, 1-[3-phenylprop-2-enyl]-4-[3-(4-methylbenzyl)-1,2,4-thiadiazol-5-yl]piperazine] | 90 | 710
Clc1ccc(Cc2nsc(N3CCN(C/C=C/c4ccccc4)CC3)n2)cc1 [compound 92, 1-[3-phenylprop-2-enyl]-4-[3-(4-chlorobenzyl)-1,2,4-thiadiazol-5-yl]piperazine] | 69 | 750
Fc1ccc(Cc2nsc(N3CCN(C/C=C/c4ccccc4)CC3)n2)cc1 [compound 93, 1-[3-phenylprop-2-enyl]-4-[3-(4-fluorobenzyl)-1,2,4-thiadiazol-5-yl]piperazine] | 91 | 1990
CCCCCc1ccc(C(=O)NCCN2CCN(c3nc(Cc4ccc(F)cc4)ns3)CC2)cc1 [compound 94, 4-pentyl-N-{2-[4-[3-(4-fluorobenzyl)-1,2,4-thiadiazol-5-yl]piperazin-1-yl]ethyl}benzamide] | 90 | 350
CCCCc1ccc(C(=O)NCCN2CCN(c3nc(Cc4ccc(F)cc4)ns3)CC2)cc1 [compound 95, 4-butyl-N-{2-[4-[3-(4-fluorobenzyl)-1,2,4-thiadiazol-5-yl]piperazin-1-yl]ethyl}benzamide] | 78 | 380
CCCCCCc1ccc(C(=O)NCCN2CCN(c3nc(Cc4ccc(F)cc4)ns3)CC2)cc1 [compound 96, 4-hexyl-N-{2-[4-[3-(4-fluorobenzyl)-1,2,4-thiadiazol-5-yl]piperazin-1-yl]ethyl}benzamide] | 72 | 800
O=C(NCCN1CCN(c2nc(Cc3ccc(F)cc3)ns2)CC1)c1ccc(Cl)cc1 [compound 97, 4-chloro-N-{2-[4-[3-(4-fluorobenzyl)-1,2,4-thiadiazol-5-yl]piperazin-1-yl]ethyl}benzamide] | 68 | 1290
O=C(NCCN1CCN(c2nc(Cc3ccc(F)cc3)ns2)CC1)c1cc(Cl)cc(Cl)c1 [compound 98, 3,5-dichloro-N-{2-[4-[3-(4-fluorobenzyl)-1,2,4-thiadiazol-5-yl]piperazin-1-yl]ethyl}benzamide] | 102 | 1420
Cc1ccccc1C(=O)NCCN1CCN(c2nc(Cc3ccc(F)cc3)ns2)CC1 [compound 99, 2-methyl-N-{2-[4-[3-(4-fluorobenzyl)-1,2,4-thiadiazol-5-yl]piperazin-1-yl]ethyl}benzamide] | 97 | 1580
O=C(NCCN1CCN(c2nc(Cc3ccc(Cl)cc3)ns2)CC1)c1cccc(F)c1 [compound 100, 3-fluoro-N-{2-[4-[3-(4-chlorobenzyl)-1,2,4-thiadiazol-5-yl]piperazin-1-yl]ethyl}benzamide] | 75 | 1790
Cc1ccc(C(=O)NCCN2CCN(c3nc(Cc4ccc(F)cc4)ns3)CC2)cc1 [compound 101, 4-methyl-N-{2-[4-[3-(4-fluorobenzyl)-1,2,4-thiadiazol-5-yl]piperazin-1-yl]ethyl}benzamide] | 68 | 1940
O=C(NCCN1CCN(c2nc(Cc3ccc(F)cc3)ns2)CC1)c1ccc(F)cc1 [compound 102, 4-fluoro-N-{2-[4-[3-(4-fluorobenzyl)-1,2,4-thiadiazol-5-yl]piperazin-1-yl]ethyl}benzamide] | 80 | 1990
